row,Structure (SMILES),melting point [°C]
1,"CCCCN(CC)c1nc(C)nc2c1NC(=O)CN2c1ccc(C(C)C)cc1Br [Example 1, 8-(2-bromo-4-isopropylphenyl)-4-(ethylbutylamino)-2-methyl-5,6,7,8-tetrahydropteridin-6-one]",146 to 147
2,"Cc1nc(-c2ccccc2C(F)(F)F)c2c(n1)N(c1ccc(C(C)C)cc1Br)CC(=O)N2 [Example 17, 8-(2-bromo-4-isopropylphenyl)-2-methyl-4-(2-trifluoromethylphenyl)-5,6,7,8-tetrahydropteridin-6-one]",238 to 239
3,"CCCCN(CC)c1nc(C)nc2c1NC(=S)CN2c1ccc(C(C)C)cc1Br [Example 131, 8-(2-bromo-4-isopropylphenyl)-4-(ethylbutylamino)-2-methyl-5,6,7,8-tetrahydropteridin-6-thione]",148 to 149
4,"CCCCN1C(=O)CN2C(=O)CN(c3ccc(C(C)C)cc3Br)c3nc(C)nc1c32 [Example 501, 10-[2-bromo-4-(1-methylethyl)-phenyl]-4-butyl-9,10-dihydro-2-methyl-4H,8H-pyrazino[3,2,1-de]pteridine-5,8(6H)-dione]",207 to 208

# Source: US6869955B2, “Tetrahydropteridines and pyridylpiperazines for treatment of neurological disorders” (Bristol-Myers Squibb Pharma Company, priority 1996, dated 2005)
